Measured values reported in patent US20260176249A1, “PROTEIN KINASE INHIBITOR, PREPARATION METHOD THEREFOR, AND APPLICATION THEREOF” (SHANDONG LUYE PHARMACEUTICAL CO., LTD., priority 2021, published 2026).

Experiments:
[1] = target: T1, PLK1 kinase (Homo sapiens, UniProt P53350); assay: Inhibitory activity on PLK1 kinase; assay type: biochemical; conditions: for Imax: maximum effect caused by the compound at the test concentration
T1 construct: purchased Carnabio (Carna Biosciences) 05-157
Method: Detection solution PerkinElmer #TRF0218-M
Detection instrument PerkinElemer EnVision
a. Using the Echo machine, the compounds to be tested were diluted by 1:3 on a 384-well plate, and the highest concentration was 1 μM, with a total of 10 concentration points, and each concentration was tested in duplicate wells.
b. 5 μL/well of PLK1 kinase and peptide substrate mixture were added to the assay plate (containing controls).
d. The reaction was initiated by adding 5 μL/well of ATP solution;
e. The assay plate was centrifuged at 1000 rpm for about 15 seconds, a film was used to seal the assay plate which was incubated at 23° C. for a period of time;
f. A detection solution was added to all wells of the assay plate;
g. The assay plate was centrifuged at 1000 rpm for approximately 15 seconds, a film was used to seal the assay plate which was incubated at 23° C. for 60 min.
h. The assay plate was read on EnVision. The test results were analyzed using XLFIT5 software.

[2] = test system: HCT116 cells; assay: Inhibitory activity on HCT116 cell proliferation (ATPlite); assay type: cell-based; conditions: Homo sapiens, HCT-116, 72 h
Method: Cell culture medium: RPMI1640+10% FBS (GBICO)
Cell culture plate: 96-well plate (Shanghai Jingan Biotechnology Co., Ltd.)
Detection kit: ATPlite 1step Luminescence (PerkinElmer)
Detection instrument: BioTek multifunctional microplate reader
2. Test method: HCT116 cells in the logarithmic growth phase were seeded into a white-wall clear-bottom 96-well plate at a density of 720 cells per well, and cultured overnight in a 37° C., 5% CO2 incubator. […] After adding the drug, culturing was continued for 72 h in a 37° C., 5% CO2 incubator.
GraphPad Prism 7.0 was used to process the data, the cell inhibition rate curve was obtained and IC50 was calculated.

T1 sequence (P53350 whole entry): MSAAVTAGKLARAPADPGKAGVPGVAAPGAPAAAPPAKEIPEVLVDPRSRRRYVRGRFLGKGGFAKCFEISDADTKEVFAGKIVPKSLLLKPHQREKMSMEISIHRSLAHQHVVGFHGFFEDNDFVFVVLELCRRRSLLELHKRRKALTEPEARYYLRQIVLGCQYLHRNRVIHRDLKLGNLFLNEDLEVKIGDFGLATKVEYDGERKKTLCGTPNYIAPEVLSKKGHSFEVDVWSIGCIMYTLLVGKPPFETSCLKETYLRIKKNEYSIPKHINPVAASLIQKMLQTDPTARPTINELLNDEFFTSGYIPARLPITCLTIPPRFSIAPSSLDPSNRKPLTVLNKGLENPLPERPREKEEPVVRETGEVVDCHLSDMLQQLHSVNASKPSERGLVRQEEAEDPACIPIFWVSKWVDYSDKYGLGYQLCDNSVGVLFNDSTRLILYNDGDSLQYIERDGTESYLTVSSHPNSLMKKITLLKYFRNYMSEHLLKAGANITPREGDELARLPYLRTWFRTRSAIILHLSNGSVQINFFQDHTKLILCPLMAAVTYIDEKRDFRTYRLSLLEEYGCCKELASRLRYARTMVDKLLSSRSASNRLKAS

Row | Compound | IC50 [1] [nM] | Imax [1] [%] | IC50 [2] [nM]
1 | CN1CCN(c2ccc(OC(F)(F)F)c(Nc3ncc4ccc5c(C(=O)NO)nn(CCF)c5c4n3)c2)CC1 [Compound 25] | 1.12 | 100.23 | –
2 | CN1CCN(c2ccc(OC(F)(F)F)c(Nc3ncc4ccc5c(C(N)=O)nn(C6CC6)c5c4n3)c2)CC1 [Compound 27] | 0.459 | 100.24 | –
3 | CN1CCN(c2ccc(OC(F)(F)F)c(Nc3ncc4ccc5c(C(N)=O)nn(CC(F)(F)F)c5c4n3)c2)CC1 [Compound 28] | 0.67 | 100.08 | –
4 | CCn1nc(C(N)=O)c2ccc3cnc(Nc4cc(N5CCN(C)CC5)ccc4OC(F)(F)F)nc3c21 [Compound 29] | – | – | 77
5 | CN1CCN(c2ccc(OC(F)(F)F)c(Nc3ncc4ccc5c(C(=O)NOCCO)nn(CCF)c5c4n3)c2)CC1 [Compound 30] | 0.776 | 99.97 | –
6 | CN1CCN(c2ccc(OC(F)(F)F)c(Nc3ncc4ccc5c(C(=O)NOCCO)nn(CCO)c5c4n3)c2)CC1 [Compound 31] | 1.55 | 99.54 | –
7 | CN1CCN(c2ccc(OC(F)(F)F)c(Nc3ncc4ccc5c(C(=O)NO)nn(CC(F)(F)F)c5c4n3)c2)CC1 [Compound 32] | 0.463 | 99.87 | –
8 | C[C@@H](Oc1cc(-n2cnc3ccc(CN4CCN(C)CC4)cc32)sc1C(N)=O)c1ccccc1C(F)(F)F [GSK461364, reference compound] | – | 101.08 | –
